Results: PubChem BioAssay (NCI)
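Five concentrations, 48 hours, 96-well plates. At the TGI there is no net growth.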

How the values were obtained:
Assay in all cases: DTP human tumour cell line panel, 48 h
SW-620 colon = tested on: SW-620 colon
MDA-MB-231 breast = tested on: MDA-MB-231 breast
U251 CNS = tested on: U251 CNS
K-562 leukemia = tested on: K-562 leukemia
HT29 colon = tested on: HT29 colon
MDA-N = tested on: MDA-N
HS 578T breast = tested on: HS 578T breast
786-0 renal = tested on: 786-0 renal
SF-295 CNS = tested on: SF-295 CNS
PC-3 prostate = tested on: PC-3 prostate
HOP-62 NSCLC = tested on: HOP-62 NSCLC
HCT-116 colon = tested on: HCT-116 colon
A498 renal = tested on: A498 renal
NCI-H460 lung = tested on: NCI-H460 lung
COLO 205 colon = tested on: COLO 205 colon
OVCAR-5 ovarian = tested on: OVCAR-5 ovarian
SF-268 CNS = tested on: SF-268 CNS
SK-MEL-28 melanoma = tested on: SK-MEL-28 melanoma
RPMI-8226 leukemia = tested on: RPMI-8226 leukemia
UACC-62 melanoma = tested on: UACC-62 melanoma
SN12C renal = tested on: SN12C renal
BT-549 breast = tested on: BT-549 breast
DU-145 prostate = tested on: DU-145 prostate
MCF7 breast = tested on: MCF7 breast
A549 NSCLC = tested on: A549 NSCLC
SNB-19 CNS = tested on: SNB-19 CNS
SF-539 CNS = tested on: SF-539 CNS
HOP-92 NSCLC = tested on: HOP-92 NSCLC
CAKI-1 renal = tested on: CAKI-1 renal
NCI-H23 lung = tested on: NCI-H23 lung
T-47D breast = tested on: T-47D breast
EKVX NSCLC = tested on: EKVX NSCLC
OVCAR-4 ovarian = tested on: OVCAR-4 ovarian
IGROV1 ovarian = tested on: IGROV1 ovarian
TK-10 renal = tested on: TK-10 renal
RXF 393 renal = tested on: RXF 393 renal
SK-MEL-2 melanoma = tested on: SK-MEL-2 melanoma
NCI-H522 lung = tested on: NCI-H522 lung
UACC-257 melanoma = tested on: UACC-257 melanoma
SNB-75 CNS = tested on: SNB-75 CNS
HCC-2998 colon = tested on: HCC-2998 colon
M14 melanoma = tested on: M14 melanoma
UO-31 renal = tested on: UO-31 renal
NCI-H226 lung = tested on: NCI-H226 lung
HCT-15 colon = tested on: HCT-15 colon
MDA-MB-435 = tested on: MDA-MB-435
SK-OV-3 ovarian = tested on: SK-OV-3 ovarian
OVCAR-8 ovarian = tested on: OVCAR-8 ovarian
MOLT-4 leukemia = tested on: MOLT-4 leukemia
SK-MEL-5 melanoma = tested on: SK-MEL-5 melanoma
ACHN renal = tested on: ACHN renal
HL-60(TB) leukemia = tested on: HL-60(TB) leukemia
OVCAR-3 ovarian = tested on: OVCAR-3 ovarian
LOX IMVI melanoma = tested on: LOX IMVI melanoma
SR leukemia = tested on: SR leukemia
NCI/ADR-RES ovarian = tested on: NCI/ADR-RES ovarian
MALME-3M melanoma = tested on: MALME-3M melanoma

Compound `C#CCCCCC#Cc1ccccc1C(=O)C=[N+]=[N-]` has a TGI (SW-620 colon) of over 100 µM, a TGI (MDA-MB-231 breast) of over 100 µM and a TGI (U251 CNS) of over 100 µM. For the same compound, the TGI (K-562 leukemia) was over 100 µM, the TGI (HT29 colon) was over 100 µM and the TGI (MDA-N) was over 100 µM. It also gave a TGI (HS 578T breast) of over 100 µM, a TGI (786-0 renal) of over 100 µM and a TGI (SF-295 CNS) of over 100 µM. It also gave a TGI (PC-3 prostate) of over 100 µM, a TGI (HOP-62 NSCLC) of over 100 µM and a TGI (HCT-116 colon) of over 100 µM. For the same compound, the TGI (A498 renal) was over 100 µM, the TGI (NCI-H460 lung) was over 100 µM and the TGI (COLO 205 colon) was over 100 µM. For the same compound, the TGI (OVCAR-5 ovarian) was over 100 µM, the TGI (SF-268 CNS) was over 100 µM and the TGI (SK-MEL-28 melanoma) was over 100 µM. For the same compound, the TGI (RPMI-8226 leukemia) was over 100 µM, the TGI (UACC-62 melanoma) was over 100 µM and the TGI (SN12C renal) was over 100 µM. The TGI (BT-549 breast) was over 100 µM, the TGI (DU-145 prostate) was over 100 µM and the TGI (MCF7 breast) was over 100 µM. For the same compound, the TGI (A549 NSCLC) was over 100 µM, the TGI (SNB-19 CNS) was over 100 µM and the TGI (SF-539 CNS) was over 100 µM. The TGI (HOP-92 NSCLC) was over 100 µM, the TGI (CAKI-1 renal) was over 100 µM and the TGI (NCI-H23 lung) was over 100 µM. The TGI (T-47D breast) was over 100 µM, the TGI (EKVX NSCLC) was over 100 µM and the TGI (OVCAR-4 ovarian) was over 100 µM. It also gave a TGI (IGROV1 ovarian) of over 100 µM, a TGI (TK-10 renal) of over 100 µM and a TGI (RXF 393 renal) of over 100 µM. It also gave a TGI (SK-MEL-2 melanoma) of over 100 µM, a TGI (NCI-H522 lung) of over 100 µM and a TGI (UACC-257 melanoma) of over 100 µM. For the same compound, the TGI (SNB-75 CNS) was over 100 µM, the TGI (HCC-2998 colon) was over 100 µM and the TGI (M14 melanoma) was over 100 µM. The TGI (UO-31 renal) was over 100 µM, the TGI (NCI-H226 lung) was over 100 µM and the TGI (HCT-15 colon) was over 100 µM. It also gave a TGI (MDA-MB-435) of over 100 µM, a TGI (SK-OV-3 ovarian) of over 100 µM and a TGI (OVCAR-8 ovarian) of over 100 µM. The TGI (MOLT-4 leukemia) was over 100 µM, the TGI (SK-MEL-5 melanoma) was over 100 µM and the TGI (ACHN renal) was over 100 µM.
`COc1ccc(/C=C/c2cc(OC)c(OC)c(OC)c2)cc1O[Si](C)(C)C(C)(C)C` showed a TGI (SW-620 colon) of 17.3 µM, a TGI (MDA-MB-231 breast) of over 100 µM and a TGI (U251 CNS) of 26.6 µM. The TGI (HT29 colon) was over 100 µM, the TGI (MDA-N) was 6.25 µM and the TGI (HS 578T breast) was 8.18 µM. For the same compound, the TGI (786-0 renal) was 30.7 µM, the TGI (SF-295 CNS) was 83.8 µM and the TGI (PC-3 prostate) was over 100 µM. The TGI (HOP-62 NSCLC) was over 100 µM, the TGI (HCT-116 colon) was 14.2 µM and the TGI (A498 renal) was 94.1 µM. It also gave a TGI (NCI-H460 lung) of 13.4 µM, a TGI (COLO 205 colon) of 32.7 µM and a TGI (OVCAR-5 ovarian) of over 100 µM. The TGI (SF-268 CNS) was over 100 µM, the TGI (SK-MEL-28 melanoma) was over 100 µM and the TGI (RPMI-8226 leukemia) was 3.68 µM. The TGI (UACC-62 melanoma) was 14.1 µM, the TGI (SN12C renal) was 74.5 µM and the TGI (BT-549 breast) was 64 µM. It also gave a TGI (DU-145 prostate) of over 100 µM, a TGI (MCF7 breast) of 25.6 µM and a TGI (A549 NSCLC) of over 100 µM. The TGI (SNB-19 CNS) was over 100 µM, the TGI (SF-539 CNS) was 5.71 µM and the TGI (HOP-92 NSCLC) was 85.4 µM. It also gave a TGI (CAKI-1 renal) of over 100 µM, a TGI (NCI-H23 lung) of over 100 µM and a TGI (T-47D breast) of over 100 µM. The TGI (EKVX NSCLC) was over 100 µM, the TGI (OVCAR-4 ovarian) was over 100 µM and the TGI (IGROV1 ovarian) was over 100 µM. The TGI (TK-10 renal) was over 100 µM, the TGI (RXF 393 renal) was 9.02 µM and the TGI (SK-MEL-2 melanoma) was over 100 µM. The TGI (NCI-H522 lung) was 8.08 µM, the TGI (UACC-257 melanoma) was 37.3 µM and the TGI (SNB-75 CNS) was over 100 µM. The TGI (HCC-2998 colon) was over 100 µM, the TGI (M14 melanoma) was 29.3 µM and the TGI (UO-31 renal) was over 100 µM. The TGI (NCI-H226 lung) was 47.7 µM, the TGI (HCT-15 colon) was 21.7 µM and the TGI (MDA-MB-435) was 5.86 µM. The TGI (SK-OV-3 ovarian) was over 100 µM, the TGI (OVCAR-8 ovarian) was 10.8 µM and the TGI (MOLT-4 leukemia) was 22.2 µM. The TGI (SK-MEL-5 melanoma) was 4.44 µM and the TGI (ACHN renal) was 34 µM.
Work on `COc1ccc(NC(=S)Nc2ccccc2)cc1` yielded a TGI (SW-620 colon) of over 100 µM, a TGI (MDA-MB-231 breast) of over 100 µM and a TGI (U251 CNS) of over 100 µM. For the same compound, the TGI (K-562 leukemia) was over 100 µM, the TGI (HT29 colon) was over 100 µM and the TGI (MDA-N) was over 100 µM. The TGI (HL-60(TB) leukemia) was over 100 µM, the TGI (HS 578T breast) was over 100 µM and the TGI (786-0 renal) was over 100 µM. For the same compound, the TGI (SF-295 CNS) was over 100 µM, the TGI (PC-3 prostate) was over 100 µM and the TGI (HOP-62 NSCLC) was over 100 µM. It also gave a TGI (HCT-116 colon) of over 100 µM, a TGI (A498 renal) of over 100 µM and a TGI (NCI-H460 lung) of over 100 µM. The TGI (COLO 205 colon) was over 100 µM, the TGI (OVCAR-5 ovarian) was over 100 µM and the TGI (SF-268 CNS) was over 100 µM. For the same compound, the TGI (SK-MEL-28 melanoma) was over 100 µM, the TGI (RPMI-8226 leukemia) was over 100 µM and the TGI (UACC-62 melanoma) was over 100 µM. It also gave a TGI (SN12C renal) of over 100 µM, a TGI (BT-549 breast) of over 100 µM and a TGI (OVCAR-3 ovarian) of over 100 µM. For the same compound, the TGI (DU-145 prostate) was over 100 µM, the TGI (MCF7 breast) was over 100 µM and the TGI (A549 NSCLC) was over 100 µM. The TGI (SNB-19 CNS) was over 100 µM, the TGI (SF-539 CNS) was over 100 µM and the TGI (HOP-92 NSCLC) was over 100 µM. It also gave a TGI (CAKI-1 renal) of over 100 µM, a TGI (NCI-H23 lung) of over 100 µM and a TGI (EKVX NSCLC) of over 100 µM. The TGI (OVCAR-4 ovarian) was over 100 µM, the TGI (IGROV1 ovarian) was over 100 µM and the TGI (TK-10 renal) was over 100 µM. It also gave a TGI (RXF 393 renal) of over 100 µM, a TGI (SK-MEL-2 melanoma) of over 100 µM and a TGI (LOX IMVI melanoma) of over 100 µM. It also gave a TGI (NCI-H522 lung) of over 100 µM, a TGI (UACC-257 melanoma) of over 100 µM and a TGI (SNB-75 CNS) of over 100 µM. For the same compound, the TGI (HCC-2998 colon) was over 100 µM, the TGI (M14 melanoma) was over 100 µM and the TGI (SR leukemia) was over 100 µM. The TGI (UO-31 renal) was over 100 µM, the TGI (NCI-H226 lung) was over 100 µM and the TGI (HCT-15 colon) was over 100 µM. For the same compound, the TGI (MDA-MB-435) was over 100 µM, the TGI (SK-OV-3 ovarian) was over 100 µM and the TGI (OVCAR-8 ovarian) was over 100 µM. For the same compound, the TGI (NCI/ADR-RES ovarian) was over 100 µM, the TGI (SK-MEL-5 melanoma) was over 100 µM and the TGI (MALME-3M melanoma) was over 100 µM. The TGI (ACHN renal) was over 100 µM.
